From patent publication US12606541B2, “PPARg modulators and methods of use” (Eisai R&D Management Co., Ltd., priority 2020, dated 2026)

What was measured:
His6-TEV-PPARγ-(234-505) = target: T1, His6-TEV-PPARγ-(234-505) (Homo sapiens, UniProt P37231); test: TR-FRET Assay to Measure Co-R Peptide Recruitment to PPARγ; type: biochemical; conditions: Co-R peptide (SMRT-ID2) recruitment; top final concentration 20 μM; read-out: TR-FRET i-Ag; AC50
T1 construct: The His6-TEV-PPARγ-(234-505) protein for assay was expressed and purified; TEV cleavage site (N); made in house
T1 sequence (P37231 234-505): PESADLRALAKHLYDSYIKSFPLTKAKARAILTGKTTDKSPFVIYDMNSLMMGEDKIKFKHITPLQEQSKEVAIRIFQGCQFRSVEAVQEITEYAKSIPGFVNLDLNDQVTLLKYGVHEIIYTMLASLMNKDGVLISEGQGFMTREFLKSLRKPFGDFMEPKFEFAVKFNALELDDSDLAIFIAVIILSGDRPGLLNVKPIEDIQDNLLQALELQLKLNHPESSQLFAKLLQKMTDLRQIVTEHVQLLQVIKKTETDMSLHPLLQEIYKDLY
Method in brief: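 His-tagged PPARγ (or controls) was preincubated with compound for 20 minutes at room temperature, then 5 nM anti-His terbium antibody and 200 nM FITC-labeled SMRT-ID2 corepressor peptide (final) were added for a further hour. TR-FRET signal was normalized to percent response using 500 nM T0070907 and DMSO controls.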

UM-UC-9 engineered cells = test: Cell proliferation / short-term viability assay, CellTiter-Glo 144 h; type: cell-based, human; conditions: read-out: CTGlo 144 h UMUC9.5, G150
Method in brief: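 UM-UC-9 engineered assay-ready cells seeded at 500 cells/well in high-glucose DMEM/10% FBS, treated from dose-response plates, grown at 37° C, 5% CO2. CellTiter-Glo 2.0 luminescence read on day 7, with a day-0 pretreatment plate as T0 reference and DMSO wells as negative control.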

Row | Compound | AC50 (His6-TEV-PPARγ-(234-505)) | IC50 (UM-UC-9 engineered cells)
1 | COc1cc(-c2cc(C(=O)N3CCC(C(=O)NC4CCN(CC5(O)COC5)C4)CC34CC4)n[nH]2)c(F)cn1 (mixture of isomers) [Example 454, (S)-4-(5-(5-fluoro-2-methoxypyridin-4-yl)-1H-pyrazole-3-carbonyl)-N—((R)-1-((3-hydroxyoxetan-3-yl)methyl)pyrrolidin-3-yl)-4-azaspiro[2.5]octane-7-carboxamide and (S)-4-(5-(5-fluoro-2-methoxypyridin-4-yl)-1H-pyrazole-3-carbonyl)-N—((S)-1-((3-hydroxyoxetan-3-yl)methyl)pyrrolidin-3-yl)-4-azaspiro[2.5]octane-7-carboxamide] | 0.196 µM | 0.999 µM
2 | COc1cc(-c2cc(C(=O)N3CCC(C(=O)NC4CCN(CC(F)(F)CO)C4)CC34CC4)n[nH]2)c(F)cn1 (mixture of isomers) [Example 459, (S)—N—((S)-1-(2,2-difluoro-3-hydroxypropyl)pyrrolidin-3-yl)-4-(5-(5-fluoro-2-methoxypyridin-4-yl)-1H-pyrazole-3-carbonyl)-4-azaspiro[2.5]octane-7-carboxamide and (S)—N—((R)-1-(2,2-difluoro-3-hydroxypropyl)pyrrolidin-3-yl)-4-(5-(5-fluoro-2-methoxypyridin-4-yl)-1H-pyrazole-3-carbonyl)-4-azaspiro[2.5]octane-7-carboxamide] | 0.0117 µM | 0.102 µM
3 | COc1cc(-c2cc(C(=O)N3CCC(C(=O)NC4CCN(C5COC56CNC6)C4)CC34CC4)n[nH]2)c(F)cn1 (mixture of isomers) [Example 461] | 0.44 µM | > 10 µM
4 | COc1cc(-c2cc(C(=O)N3CCC(C(=O)NCc4ncc(N5CC6CC5CN6)cc4Cl)CC34CC4)n[nH]2)c(F)cn1 (mixture of isomers) [Example 462, (S)—N-((5-((1R,4R)-2,5-diazabicyclo[2.2.1]heptan-2-yl)-3-chloropyridin-2-yl)methyl)-4-(3-(5-fluoro-2-methoxypyridin-4-yl)-1H-pyrazole-5-carbonyl)-4-azaspiro[2.5]octane-7-carboxamide and (S)—N-((5-((1S,4S)-2,5-diazabicyclo[2.2.1]heptan-2-yl)-3-chloropyridin-2-yl)methyl)-4-(3-(5-fluoro-2-methoxypyridin-4-yl)-1H-pyrazole-5-carbonyl)-4-azaspiro[2.5]octane-7-carboxamide] | 0.0141 µM | 0.513 µM
5 | COc1cc(-c2cc(C(=O)N3CCC(C(=O)NC4CCN(C5COC56CCC6)C4)CC34CC4)n[nH]2)c(F)cn1 (mixture of isomers) [Example 464] | 0.0093 µM | 0.0364 µM
6 | COc1cc(-c2cc(C(=O)N3CCC(C(=O)Nc4cnn5ccc(C6CC6C#N)nc45)CC34CC4)n[nH]2)c(F)cn1 (mixture of isomers) [Example 466, (S)—N-(5-((1S,2S)-2-cyanocyclopropyl)pyrazolo[1,5-a]pyrimidin-3-yl)-4-(5-(5-fluoro-2-methoxypyridin-4-yl)-1H-pyrazole-3-carbonyl)-4-azaspiro[2.5]octane-7-carboxamide and (S)—N-(5-((1R,2R)-2-cyanocyclopropyl)pyrazolo[1,5-a]pyrimidin-3-yl)-4-(5-(5-fluoro-2-methoxypyridin-4-yl)-1H-pyrazole-3-carbonyl)-4-azaspiro[2.5]octane-7-carboxamide] | 0.0051 µM | 0.0512 µM
